Assay results: patent US9096544B2, “Therapeutic compounds” (Wayne State University, priority 2009, dated 2015)
Converted amounts (≈) assume the structure as drawn. Read-outs that look alike come from different tables or passages of the source.

Key:
FFMA-AML cells = test: Annexin V-FITC binding by flow cytometry, FFMA-AML cells; assay type: cell-based, human; details: 1 μM, varying times
Experimental: FIG. 3 illustrates the induction of apoptosis and cell death as assessed using Annexin V-FITC binding together with propidium iodide (PI) staining. FFMA-AML and TF(vSRC) cells were exposed to 1 μM 3-Cl-AHPC or compound 16. A) Apoptosis in FFMA-AML and TF(vSRC) cells following 24 and 48 h ARR exposure, respectively. The plots show the distribution of classes of fluorescence intensity versus cell number. The bottom left quadrant represents live cells (both annexin V-FITC and PI negative); the bottom right quadrant represents early apoptotic cells (annexin V-FITC positive but PI negative); and the top right quadrant represents late apoptotic cells (both annexin V-FITC and PI positive). B) Percentage of early apopotic Annexin V-positive cells at the indicated times. […] (p values of <0.05, <0.01 and <0.001 respectively, as determined by the t test).
Apoptosis of cells was determined by (1) acridine orange and ethidium bromide-staining to assess cells with nuclear fragmentation and chromatin condensation as previously described (Farhana L. et al., Cancer Res. 2006; 65:4909-4917) and (2) flow cytometry assessing Annexin V-FITC binding together with propidium iodide staining (Annexin V-FITC apoptosis Detection kit 1, BD Biosciences, San Diego, Calif.). Data acquisition was done on a FACS Calibur flow cytometer (BD) and analyzed with CellQuest software. […]

MiaPaCa-2 cells = test: Test I: growth inhibition of MiaPaCa-2 cells (MTT); assay type: cell-based; details: 1 μM
Experimental: (§1) Pancreatic cancer cell lines (COLO357, PANC-1, Capan-2, AsPc-1 cells and MiaPaCa-2 cells obtained from American Type Culture Collection; ATCC, Rockville, Md.) were treated with 1 μM 3-Cl-AHPC and compound 16 for various times. Apoptosis in cells were analyzed by flow cytometry using Annexin V-FITC binding together with propidium iodide (PI) staining (Annexin V-FITC apoptosis Detection Kit 1, BD Biosciences, San Diego, Calif.). Data acquisition was done on a FACS Calibur flow cytometer (BD) and analyzed with CellQuest software (BD Biosciences). 3-Cl-AHPC and compound 16 mediated inhibition of cell growth were determined by 3-(4,5-dimethylthiazol-2-yl)-2,5-diphenyltetrazolium bromide (MTT) assay. The cells were seeded on 96-well plates at a density of 4×10^4 cells/well in a volume of 200 μl culture medium. 1 μM AHP3 and 3-Cl-AHPC in DMSO (final concentration 0.1%) were added to the cells for various times. […] After discarding the medium, MTT precipitates were solubilized with 200 μl DMSO and the plates read on a BioTeK Synergy HT (BioTeK Instrument Inc., Vermont) at an absorbance 570 nm. […] The spheroids were stained with acridine orange/ethidium bromide staining and immediately visualized and photographed with fluorescence microscope (OLYMPUS CKX41). […] Then spheroids were visualized and photographed with a fluorescence microscope.

AsPc-1 cells = test: Test I: growth inhibition of AsPc-1 cells (MTT); assay type: cell-based; details: 1 μM
Experimental: as §1

[1] = test system: pancreatic cancer stem cells (CD44+/CD24+ cells obtained from PANC-1, Capan-2 and MiaPaCa-2 cells); test: Test J: spheroid formation by CD44+/CD24+ pancreatic cancer stem cells; assay type: cell-based
Experimental: Apoptosis and Growth Inhibition of Pancreatic Cancer Stem Cells (Obtained from PANC-1, Capan-2 and MiaPaCa-2 Cells) by Compound 16 and 3-Cl-AHPC.
Cells were grown to 70-80% confluence and then trypsinised and washed with sorting buffer (1×PBS, 5% FCS). The cells were resuspended with […] sorting buffer and incubated with 15-20 μl anti-CD24-FITC, anti-CD44-PE primary antibodies for 30 min at ice. The cells were washed and resuspended in 500 μl of sorting buffer and sorted using FACSAria system (BD Immunocytochemistry Systems, Franklin lakes, NJ).
The sorted CD44^+/CD24^+ cells were suspended in serum-free stem cell medium containing DMEM/F12 (1:1) supplemented with B27 (Life Technologies, Gaithersburg, Md.), 20 ng/ml EGF (Biomol International, Plymouth, Pa.)), 20 ng/ml fibroblast growth factor (Biomol International, Plymouth, Pa.), and 100 μg/ml gentamycin. Approximately 150-200 cells per well were seeded in an ultra low-attachment 96-well plate (Corning Inc, Lowell, Mass.). 3-Cl-AHPC and compound 16 were added the day after cells were plated or after 7 days of spheroid formation. Spheriods were photographed and measured utilizing a Olympus microscope (OLYMPUS CKX41) and Olympus microscope digital camera with DP2-BSW software (Olympus soft imaging solutions GmbH, Germany).

Capan-2 cells = test: Test I: growth inhibition of Capan-2 cells (MTT); assay type: cell-based; details: 1 μM
Experimental: as §1

[2] = Test H: aqueous solubility by UV absorbance; assay type: physicochemical; details: for solubility: 22° C.
Experimental: Standard curves at the UV λmax (330, 350 and 345 nm for 3-Cl-AHPC, 18 and 16, respectively) were generated using 0.245, 0.163, 0.049 and 0.025 mM 3-Cl-AHPC and 0.380, 0.178, 0.053 and 0.027 mM 18 and 16, which were prepared from 1.0% (wt/vol) solutions of compounds in Me2SO. […] Measurements for maximum solubilities in distilled water (pH 5) and phosphate-buffered saline (PBS, pH 7.2) at 22° C. were made by UV absorbance using solutions obtained after saturation at higher temperatures, overnight incubation at 22° C., and centrifugation to remove undissolved material.

| SMILES | annexin V-FITC-positive cells (FFMA-AML cells) | inhibition of growth (MiaPaCa-2 cells) | inhibition of growth (AsPc-1 cells) | spheroid formation by CD24+/CD44+ cells [1] | inhibition of growth (Capan-2 cells) | Solubility (μM) at 22° C. PBS (pH 7.2) ([2]; PBS pH 7.2) | solubility ([2]; thermodynamic from solid, distilled water pH 5, read-out: Solubility (μM) at 22° C. Distilled water (pH 5)) [µM] | solubility ([2]; distilled water pH 5, read-out: Solubility (μM) at 22° C. Distilled water (pH 5)) [µM] | solubility ([2]; phosphate-buffered saline, aqueous buffer, thermodynamic from solid, PBS pH 7.2, read-out: Solubility (μM) at 22° C. PBS (pH 7.2)) [µM] |
| --- | --- | --- | --- | --- | --- | --- | --- | --- | --- |
| O=C(O)C=Cc1ccc(-c2ccc(O)c(C34CC5CC(CC(C5)C3)C4)c2)c(Cl)c1 [Compound 3-Cl-AHPC, 4-[3-(1-adamantyl)-4-hydroxyphenyl]-3-chlorocinnamic acid, reference compound] | progressive increase in annexin V-FITC-positive cells with time | significant inhibition of growth | significant inhibition of growth | inhibited their ability to form spheroids | significant inhibition of growth | Not detectable | 4.5 (≈ 1.84 µg/mL) |  |  |
| O=C(O)/C=C/c1cnc(-c2ccc(O)c(C34CC5CC(CC(C5)C3)C4)c2)nc1 [Compound 16, (E)-3-[2-(3-(1-Adamantyl)-4-hydroxyphenyl)-5-pyrimidinyl]-2-propenoic acid] | progressive increase in annexin V-FITC-positive cells with time | significant inhibition of growth | significant inhibition of growth | inhibited their ability to form spheroids | significant inhibition of growth |  |  | 54 (≈ 20.3 µg/mL) | 440 (≈ 166 µg/mL) |
